What was measured:
rtTA2s-M2 [1] = assay: Activation of rtTA2s-M2 in vitro; format: cell-based; conditions: relative to doxycycline
rtTA2-MT2 = assay: rtTA-mediated gene activation, luciferase positive cell line MT2; format: cell-based
Description: (§1) FIGS. 2A-2D show a comparison of doxycycline and 9-t-butyl doxcycline in 34R and MT2 rtTA mutants. FIGS. 2A and 2B show the effect of doxycyline on 34R and MT2 mutants, respectively. FIGS. 2C and 2D show the effect of 9-t-butyl doxycycline on 34R and MT2 mutants, respectively.

rtTA2-34R = assay: rtTA-mediated gene activation, luciferase positive cell line 34R; format: cell-based; conditions: FIGS. 2A and 2C
Description: as §1

rtTA2s-M2 [2] = assay: Activation of rtTA2s-M2 gene in vivo, bioluminescence of bitransgenic mice rTA M2CaMK-1/LC1; conditions: 0.2 mg/mL in drinking water with 5% sucrose, seven days, compared with doxycycline at 2 mg/mL
Description: 9-t-butyl doxycycline was tested in bitransgenic mice with rTA M2CaMK-1/LC1. The mice expressed the rtTA2s-M2 gene under control of the forebrain specific α-CamKII promoter. In addition, the LC1 mouse had luciferase and cre genes under the control of the bi-directional promoter. The mice were adminstered doxycycline (2 mg/mL) for seven days in the drinking water with 5% sucrose or with 9-t-butyl doxycycline at (0.2 and 2 mg/mL). The mice were anaesthetized with avertin and injected with […] (IP) and placed in the bioluminescence chamber and measured 5 minutes later.

rtTA = conditions: in vitro; relative to doxycycline
[3] = tested on: tet operator-linked nucleotide sequence; conditions: as demonstrated in U.S. Pat. No. 5,789,156; cited from earlier work
[4] = described in Mansuy and Bujard Curr. Op. Neurobiol. 10:593-96; cited from earlier work

5-phenylcarbamate doxcycline
activation of rtTA2s-M2 compared with doxycycline (rtTA2s-M2 [1]): two fold better activiator

9-t-butyl doxycycline
activity compared with doxycycline, MT2 rtTA mutant (rtTA2-MT2; FIGS. 2B and 2D): ten times more active | concentration at which full induction of the system occurred (rtTA2-MT2; rtTA2-MT2 system): 10 ng/mL | activity compared with doxycycline, 34R rtTA mutant (rtTA2-34R): ten times more active | activation response (luciferase bioluminescence) (rtTA2s-M2 [2]): better activation response | concentration inducing all rtTA's, lower than doxycycline (rtTA): 10 fold

Cc1c2c(c(O)c3c(O)cccc13)C(=O)[C@]1(O)C(=O)C(C(N)=O)=C(O)[C@@H](N(C)C)[C@@H]1C2 [anhydrotetracycline]
strength as inducing agent [3]: strong inducing agents

C[C@H]1c2cccc(O)c2C(=O)C2=C(O)[C@]3(O)C(=O)C(C(N)=O)=C(O)[C@@H](N(C)C)[C@@H]3[C@@H](O)[C@@H]21 [doxycycline]
penetration of the blood-brain barrier [4]: limited penetration of the blood-brain barrier

Source: US20090257985A1, “METHODS OF REGULATING EXPRESSION OF GENES OR OF GENE PRODUCTS USING SUBSTITUTED TETRACYCLINE COMPOUNDS” (priority 2006, published 2009)
